Results: PubChem BioAssay (NCI)
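How tested: cells in 96-well plates exposed to compound for 48 hours at five concentrations. At the GI50, growth is halved. TGI is the concentration that stops growth completely.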

What was measured:
Test in all cases: DTP human tumour cell line panel, 48 h
[1] = system: 786-0 renal
[2] = system: SK-MEL-28 melanoma
[3] = system: COLO 205 colon
[4] = system: UACC-62 melanoma
[5] = system: LOX IMVI melanoma
[6] = system: NCI-H522 lung
[7] = system: ACHN renal
[8] = system: U251 CNS
[9] = system: K-562 leukemia
[10] = system: CCRF-CEM leukemia
[11] = system: NCI-H226 lung
[12] = system: HCC-2998 colon
[13] = system: TK-10 renal
[14] = system: MDA-MB-435
[15] = system: UO-31 renal
[16] = system: SK-MEL-2 melanoma
[17] = system: UACC-257 melanoma
[18] = system: NCI/ADR-RES ovarian
[19] = system: CAKI-1 renal
[20] = system: MDA-MB-231 breast
[21] = system: OVCAR-4 ovarian
[22] = system: NCI-H23 lung
[23] = system: T-47D breast
[24] = system: KM12 colon
[25] = system: SF-268 CNS
[26] = system: HCT-116 colon
[27] = system: A549 NSCLC
[28] = system: SF-539 CNS
[29] = system: OVCAR-5 ovarian
[30] = system: HOP-92 NSCLC
[31] = system: SW-620 colon
[32] = system: BT-549 breast
[33] = system: HCT-15 colon
[34] = system: HS 578T breast
[35] = system: M14 melanoma
[36] = system: MOLT-4 leukemia
[37] = system: MCF7 breast
[38] = system: HOP-62 NSCLC
[39] = system: SK-OV-3 ovarian
[40] = system: NCI-H460 lung
[41] = system: DU-145 prostate
[42] = system: RXF 393 renal
[43] = system: OVCAR-3 ovarian
[44] = system: EKVX NSCLC
[45] = system: OVCAR-8 ovarian
[46] = system: HT29 colon
[47] = system: RPMI-8226 leukemia
[48] = system: IGROV1 ovarian
[49] = system: PC-3 prostate
[50] = system: SNB-75 CNS
[51] = system: SF-295 CNS
[52] = system: SK-MEL-5 melanoma
[53] = system: SN12C renal
[54] = system: SNB-19 CNS

Q: For `O=C(Cc1csc2nc(-c3ccc(Br)cc3)cn12)N/N=C/c1cc(Br)ccc1O`, which GI50 [1] is on record?
A: 15 µM

Q: And the TGI [1]?
A: > 100 µM

Q: What about the GI50 [2] of the same molecule?
A: 48.8 µM

Q: And the TGI [2]?
A: > 100 µM

Q: And the GI50 [3]?
A: 23.9 µM

Q: What about the TGI [3] of the same molecule?
A: > 100 µM

Q: What about the GI50 [4] of the same molecule?
A: 10.4 µM

Q: And the TGI [4]?
A: 28.6 µM

Q: What about the GI50 [5] of the same molecule?
A: 6.79 µM

Q: And the TGI [5]?
A: 28 µM

Q: And the GI50 [6]?
A: 11.3 µM

Q: And the TGI [6]?
A: > 100 µM

Q: What about the GI50 [7] of the same molecule?
A: 6.13 µM

Q: What about the TGI [7] of the same molecule?
A: 42.9 µM

Q: And the GI50 [8]?
A: 11.3 µM

Q: And the TGI [8]?
A: > 100 µM

Q: What about the GI50 [9] of the same molecule?
A: 3.02 µM

Q: What about the TGI [9] of the same molecule?
A: 13.9 µM

Q: What about the GI50 [10] of the same molecule?
A: 3.89 µM

Q: What about the TGI [10] of the same molecule?
A: 38.6 µM

Q: What about the GI50 [11] of the same molecule?
A: 23.3 µM

Q: What about the TGI [11] of the same molecule?
A: 65.1 µM

Q: And the GI50 [12]?
A: 5.5 µM

Q: And the TGI [12]?
A: 19.7 µM

Q: And the GI50 [13]?
A: 4.33 µM

Q: What about the TGI [13] of the same molecule?
A: 17 µM

Q: What about the GI50 [14] of the same molecule?
A: 18 µM

Q: What about the TGI [14] of the same molecule?
A: > 100 µM

Q: And the GI50 [15]?
A: 24 µM

Q: What about the TGI [15] of the same molecule?
A: > 100 µM

Q: What about the GI50 [16] of the same molecule?
A: 89 µM

Q: And the TGI [16]?
A: > 100 µM

Q: What about the GI50 [17] of the same molecule?
A: 20.1 µM

Q: And the TGI [17]?
A: 63.2 µM

Q: What about the GI50 [18] of the same molecule?
A: 2.23 µM

Q: And the TGI [18]?
A: 6.75 µM

Q: And the GI50 [19]?
A: 4.53 µM

Q: And the TGI [19]?
A: 34.9 µM

Q: And the GI50 [20]?
A: 11.8 µM

Q: And the TGI [20]?
A: 66.8 µM

Q: What about the GI50 [21] of the same molecule?
A: 50.2 µM

Q: What about the TGI [21] of the same molecule?
A: > 100 µM

Q: And the GI50 [22]?
A: 4.32 µM

Q: What about the TGI [22] of the same molecule?
A: 26.2 µM

Q: What about the GI50 [23] of the same molecule?
A: 35.3 µM

Q: What about the TGI [23] of the same molecule?
A: > 100 µM

Q: What about the GI50 [24] of the same molecule?
A: 29.6 µM

Q: And the TGI [24]?
A: > 100 µM

Q: And the GI50 [25]?
A: > 100 µM

Q: What about the TGI [25] of the same molecule?
A: > 100 µM

Q: And the GI50 [26]?
A: 4.31 µM

Q: And the TGI [26]?
A: 48.2 µM

Q: What about the GI50 [27] of the same molecule?
A: 18.8 µM

Q: What about the TGI [27] of the same molecule?
A: > 100 µM

Q: What about the GI50 [28] of the same molecule?
A: 14.9 µM

Q: And the TGI [28]?
A: 53.8 µM

Q: And the GI50 [29]?
A: 14 µM

Q: And the TGI [29]?
A: 73.5 µM

Q: What about the GI50 [30] of the same molecule?
A: 22.2 µM

Q: And the TGI [30]?
A: > 100 µM

Q: What about the GI50 [31] of the same molecule?
A: 5.51 µM

Q: And the TGI [31]?
A: > 100 µM

Q: What about the GI50 [32] of the same molecule?
A: 27.7 µM

Q: What about the TGI [32] of the same molecule?
A: > 100 µM

Q: What about the GI50 [33] of the same molecule?
A: 5.6 µM

Q: What about the TGI [33] of the same molecule?
A: > 100 µM

Q: And the GI50 [34]?
A: 53.3 µM

Q: And the TGI [34]?
A: > 100 µM

Q: What about the GI50 [35] of the same molecule?
A: 14.3 µM

Q: What about the TGI [35] of the same molecule?
A: 30.4 µM

Q: What about the GI50 [36] of the same molecule?
A: 0.674 µM

Q: And the TGI [36]?
A: 8.41 µM

Q: What about the GI50 [37] of the same molecule?
A: > 100 µM

Q: What about the TGI [37] of the same molecule?
A: > 100 µM

Q: And the GI50 [38]?
A: 9.77 µM

Q: What about the TGI [38] of the same molecule?
A: 41.3 µM

Q: What about the GI50 [39] of the same molecule?
A: > 100 µM

Q: What about the TGI [39] of the same molecule?
A: > 100 µM

Q: What about the GI50 [40] of the same molecule?
A: > 100 µM

Q: And the TGI [40]?
A: > 100 µM

Q: What about the GI50 [41] of the same molecule?
A: 19.5 µM

Q: And the TGI [41]?
A: > 100 µM

Q: And the GI50 [42]?
A: 63.9 µM

Q: And the TGI [42]?
A: > 100 µM

Q: And the GI50 [43]?
A: 45.3 µM

Q: What about the TGI [43] of the same molecule?
A: > 100 µM

Q: And the GI50 [44]?
A: 24.2 µM

Q: What about the TGI [44] of the same molecule?
A: > 100 µM

Q: What about the GI50 [45] of the same molecule?
A: 7.06 µM

Q: What about the TGI [45] of the same molecule?
A: > 100 µM

Q: What about the GI50 [46] of the same molecule?
A: 34.7 µM

Q: What about the TGI [46] of the same molecule?
A: > 100 µM

Q: And the GI50 [47]?
A: 5.04 µM

Q: What about the TGI [47] of the same molecule?
A: > 100 µM

Q: And the GI50 [48]?
A: 1.77 µM

Q: And the TGI [48]?
A: > 100 µM

Q: What about the GI50 [49] of the same molecule?
A: 9.46 µM

Q: And the TGI [49]?
A: > 100 µM

Q: What about the GI50 [50] of the same molecule?
A: > 100 µM

Q: What about the TGI [50] of the same molecule?
A: > 100 µM

Q: And the GI50 [51]?
A: 14 µM

Q: What about the TGI [51] of the same molecule?
A: 88.3 µM

Q: What about the GI50 [52] of the same molecule?
A: 11.4 µM

Q: What about the TGI [52] of the same molecule?
A: 45.4 µM

Q: And the GI50 [53]?
A: 16.6 µM

Q: What about the TGI [53] of the same molecule?
A: 79.6 µM

Q: What about the GI50 [54] of the same molecule?
A: 26.1 µM

Q: And the TGI [54]?
A: > 100 µM
